Data as given in patent publication US20120010075A1 (priority 2009, published 2012).
Read-outs that look alike come from different tables or passages of the source.

Assays:
[1] = test system: Leptosphaeria nodorum (LEPTNO); assay: Isolated metal-hydrazone complexes versus parent hydrazones, in vitro, Leptosphaeria nodorum (Example 31, Table 7); format: cell-based; conditions: Parastagonospora nodorum; 0.1 μg/mL; copper-minus medium; 72 h
[2] = test system: Phytophthora infestans; format: in vivo, Phytophthora infestans on tomato; conditions: applied 24 h before inoculation, assessed 7 days after inoculation
[3] = test system: Leptosphaeria nodorum (glume blotch of wheat); assay: Cu-hydrazone complexes versus parent hydrazones against glume blotch of wheat (Example 32, Table 8); format: in vivo, Leptosphaeria nodorum on wheat (cultivar Yuma); conditions: Parastagonospora nodorum, 200 ppm spray, inoculated after 24 h
[4] = test system: Phytophthora capsici; assay: In vitro fungitoxicity of hydrazones with and without copper towards Phytophthora capsici (Example 28, Table 3); format: cell-based; conditions: 48 h; for % Inhn Plus copper Observed: copper-plus AS medium (CuCl2, 50 μM); for inhibition of growth at 0.039 µg/mL / inhibition of growth at 0.05 µg/mL: Phytophthora capsici, copper-minus AS medium, read-out: % Inhn Minus copper Observed
[5] = test system: Leptosphaeria nodorum (LEPTNO); assay: In vitro fungitoxicity of hydrazones with and without copper towards Leptosphaeria nodorum (Example 26); format: cell-based; conditions: 72 h at 25° C.
[6] = test system: Phytophthora infestans; format: in vivo, Phytophthora infestans on tomato (Outdoor Girl)
[7] = test system: Alternaria solani; assay: Compound 16 and copper materials against tomato early blight (Example 37, Tables 17-20); format: in vivo, Alternaria solani on tomato (Outdoor Girl)
[8] = test system: Colletotrichum lagenarium; assay: Compound 16 and copper materials against cucumber anthracnose (Example 37, Tables 21-24); format: in vivo, Colletotrichum lagenarium on cucumber (Bush Pickle)
[9] = test system: Ustilago maydis; assay: In vitro fungitoxicity of hydrazones with and without copper towards Ustilago maydis (Example 29, Table 4); format: cell-based; conditions: 1 μg/mL, 48 h; for % Inhn. Plus copper Observed: copper-plus medium (CuCl2, 10 μM); for inhibition of growth at 1 µg/mL: Mycosarcoma maydis, copper-minus medium, read-out: % Inhn. Minus copper Observed
[10] = test system: Septoria tritici isolate USA-184; assay: In vitro fungitoxicity of hydrazones with and without copper towards Septoria tritici (Example 30, Table 5); format: cell-based; conditions: Zymoseptoria tritici, 0.05 μg/mL
[11] = hydrazone 50 ppm + 50 μM CuCl2.2H2O, tomato
[12] = Colby formula, CuCl2, read-out: % Inhibition Plus copper Predicted
[13] = copper-minus medium, 90 h, read-out: % Inhibition Minus copper Observed
[14] = copper-plus medium CuCl2, 90 h, read-out: % Inhibition Plus copper Observed
[15] = Parastagonospora nodorum, 72 h, compound 0.05 μg/mL, copper-minus medium, read-out: LEPTNO % Inhn. Minus Copper Observed
[16] = compound 0.05 μg/mL, copper-plus medium (CuCl2.2H2O)

Structure (SMILES) | inhibition at 0.1 µg/mL [1] [%] | TLB % Control [2, 11] [%] | pest or weed control at 200 ppm [3] [%] | melting point [°C] | % Inhn. Plus copper Observed [9] [%] | inhibition of growth at 1 µg/mL [9] [%] | inhibition at 0.05 µg/mL [10, 12] [%] | inhibition at 0.05 µg/mL [10, 13] [%] | inhibition at 0.05 µg/mL [10, 14] [%] | % Inhn Plus copper Observed ([4]; 0.050 μg/mL) [%] | inhibition of growth at 0.05 µg/mL ([4]; 0.050 μg/mL) [%] | inhibition of growth at 0.05 µg/mL [5, 15] [%] | LEPTNO % Inhn. Plus Copper Observed [5, 16] [%] | further results
O=C(N/N=C/c1cc(Cl)cc(Cl)c1O)c1c(Cl)cccc1Cl [Example 43] | 3.6 | 68.8 | 0 | 250 to 252 | – | – | – | – | – | – | – | – | – | % Inhn Plus copper Observed ([4]; 0.039 μg/mL): 90.3%; inhibition of growth at 0.039 µg/mL ([4]; 0.039 μg/mL): 54.2%; inhibition of growth at 0.156 µg/mL ([5]; Parastagonospora nodorum, 72 h, compound 0.156 μg/mL, copper-minus medium, read-out: LEPTNO % Inhn. Minus Copper Observed): 14.2%; LEPTNO % Inhn. Plus Copper Observed ([5]; compound 0.156 μg/mL, copper-plus medium (CuCl2.2H2O)): 75.4%
O=C(N/N=C/c1cc(Cl)cc(Cl)c1O)c1ccccc1 [Compound 16] | – | – | – | – | – | – | – | – | – | – | – | – | – | % Control of Tomato Late Blight ([6]; hydrazone 10 μM alone): 1.5%; % Control of Tomato Late Blight ([6]; hydrazone 50 μM alone): 11.3%; % Control of Tomato Late Blight ([6]; hydrazone 200 μM alone): 21.4%; % Control of Tomato Late Blight ([6]; hydrazone 400 μM alone): 25.7%; % Control of Tomato Early Blight ([7]; hydrazone 10 μM alone): 3.9%; % Control of Tomato Early Blight ([7]; hydrazone 50 μM alone): 8%; % Control of Tomato Early Blight ([7]; hydrazone 200 μM alone): 28.4%; % Control of Tomato Early Blight ([7]; hydrazone 400 μM alone): 32.4%; % Control of Cucumber Anthracnose ([8]; hydrazone 10 μM alone): 10%; % Control of Cucumber Anthracnose ([8]; hydrazone 50 μM alone): 33.8%; % Control of Cucumber Anthracnose ([8]; hydrazone 200 μM alone): 63.8%; % Control of Cucumber Anthracnose ([8]; hydrazone 400 μM alone): 70.8%
O.O.[Cl][Cu][Cl] [CuCl2•2H2O] | – | – | – | – | – | – | – | – | – | – | – | – | – | % Control of Tomato Early Blight ([7]; copper material 10 μM alone): 0.0%; % Control of Tomato Early Blight ([7]; copper material 50 μM alone): 0.0%; % Control of Tomato Early Blight ([7]; copper material 200 μM alone): 50.4%; % Control of Tomato Early Blight ([7]; copper material 400 μM alone): 72.5%; % Control of Tomato Early Blight ([7]; copper material 800 μM alone): 83.3%; % Control of Cucumber Anthracnose ([8]; copper material 10 μM alone): 9.6%; % Control of Cucumber Anthracnose ([8]; copper material 50 μM alone): 1.4%; % Control of Cucumber Anthracnose ([8]; copper material 200 μM alone): 37.2%; % Control of Cucumber Anthracnose ([8]; copper material 400 μM alone): 76.2%; % Control of Cucumber Anthracnose ([8]; copper material 800 μM alone): 90.0%
O=C(N/N=C/c1cc(C(F)(F)F)ccc1O)c1ccccc1 [Example 277] | 0.6 | 86.4 | – | 214 to 217 | 83.5 | 1.7 | 3.6 | 3.6 | 88 | 88.2 | 0 | 1.9 | 97.5 | –
O=C(N/N=C/c1cc(C(F)(F)F)cc(C(F)(F)F)c1O)c1ccc(Cl)cc1 [Example 337] | 39.9 | – | – | 233 to 236 | 97.8 | 22 | 46.8 | 46.8 | 97.1 | 42.1 | 4.7 | – | – | TLB % Control ([2]; hydrazone 50 ppm with 50 μM CuCl2.2H2O, tomato late blight): 97.0%; inhibition of growth at 0.05 µg/mL ([5]; Parastagonospora nodorum, 72 h, copper-minus medium, test compound Concn. 0.05 μg/mL, read-out: LEPTNO % Inhn. Minus Copper Observed): 22.4%; LEPTNO % Inhn. Plus Copper Observed ([5]; copper-plus medium (CuCl2 10 μM), test compound Concn. 0.05 μg/mL): 98.0%
O=C(N/N=C/c1cc(Cl)cc(Cl)c1O)c1ccc(OC(F)(F)F)cc1 [Example 100] | 24.7 | 74.2 | 0 | 220 to 229 | – | – | – | – | – | – | – | 8.2 | 97.0 | % Inhn Plus copper Observed ([4]; 0.039 μg/mL): 88.8%; inhibition of growth at 0.039 µg/mL ([4]; 0.039 μg/mL): 10%
O.O.O.O.O.O=S(=O)([O-])[O-].[Cu+2] [CuSO4•5H2O] | – | – | – | – | – | – | – | – | – | – | – | – | – | % Control of Tomato Early Blight ([7]; copper material 10 μM alone): 0.0%; % Control of Tomato Early Blight ([7]; copper material 50 μM alone): 7.1%; % Control of Tomato Early Blight ([7]; copper material 200 μM alone): 54.4%; % Control of Tomato Early Blight ([7]; copper material 400 μM alone): 64.1%; % Control of Tomato Early Blight ([7]; copper material 800 μM alone): 71.6%; % Control of Cucumber Anthracnose ([8]; copper material 10 μM alone): 1.4%; % Control of Cucumber Anthracnose ([8]; copper material 50 μM alone): 0.0%; % Control of Cucumber Anthracnose ([8]; copper material 200 μM alone): 61.3%; % Control of Cucumber Anthracnose ([8]; copper material 400 μM alone): 75.7%; % Control of Cucumber Anthracnose ([8]; copper material 800 μM alone): 87.1%
C/C(=N\NC(=O)c1ccccc1)c1cc(Cl)cc(Cl)c1O [Example 60] | 23.3 | 85.0 | – | – | 93.5 | 0 | 20.6 | 20.6 | 94.8 | 76.4 | 4.1 | 7.3 | 97.5 | –
O=C(N/N=C/c1cc(Cl)cc(Cl)c1O)c1ccc([N+](=O)[O-])cc1 [Example 76] | 92.8 | 89.8 | 0 | – | – | – | – | – | – | – | – | 0 | 97.0 | –
